Experimental data published in patent US20260062376A1, “SQUARAMIDE DERIVATIVES AS CB1 ALLOSTERIC MODULATORS” (RESEARCH TRIANGLE INSTITUTE, priority 2022, published 2026).

Assays:
[1] = target: T1, Human CB1 (Homo sapiens (Human), UniProt P21554); assay: Calcium mobilization assay (antagonist mode vs CP55,940); type: cell-based; settings: CHO-RD-HGA16 cells stably expressing human CB1; against EC50 concentration of CP55,940; mean ± SEM, at least three experiments
Description: Calcium Mobilization Assay: CHO-RD-HGA16 cells (Molecular Devices, San Jose, California, United States of America) stably expressing the human CB1 receptor were plated into 96-well black-walled assay plates at 25,000 cells/well in 100 μL of Ham's F12 (supplemented with 10% fetal bovine serum, 100 units of penicillin/streptomycin, and 100 μg/mL Normocin) and incubated overnight at 37° C., 5% CO2. Calcium 5 dye (Molecular Devices, San Jose, California, United States of America) was reconstituted according to the manufacturer's instructions. The reconstituted dye was diluted 1:40 in prewarmed (37° C.) assay buffer (lx HBSS, 20 mM HEPES, 2.5 mM probenecid, pH 7.4 at 37° C.). Growth medium was removed, and the cells were gently washed with 100 μL of prewarmed (37° C.) assay buffer. […] After the pretreatment incubation period, the plate was read with a FLIPR Tetra (Molecular Devices, San Jose, California, United States of America). […] Relative fluorescence units (RFU) were plotted against the log of compound concentrations. […] Test compound RFUs were compared to the CP55,940 Emax RFUs to generate % Emax values. For the CB2 agonist and antagonist assays, the same procedures were followed except that stable human CB2—CHO-RD-HGA16 cells were used.
(§1) Data Analysis: For calcium mobilization experiments, data were fit to a three-parameter logistic curve to generate IC50 values (GraphPad Prism 6.0, Graphpad Software, San Diego, California, United States of America). For [^35S]GTPγS experiments, data were normalized to maximal CP55,940 (100 nM) stimulation in the absence of test compound (i.e., vehicle=100%).

[2] = target: T1, Human CB1; assay: Human CB1 HEK293 membrane [35S]GTPγS binding assay; type: biochemical; settings: HEK293 membranes expressing human CB1, in presence of CP55,940, mean ± SEM
Description: Non-specific binding was determined by adding 30 μM unlabeled GTPγS.
as §1

[3] = target: Mouse CB1 (Mus musculus (Mouse), UniProt P47746); assay: Mouse CB1 [35S]GTPγS binding assay (ICR mouse cerebellum membranes); type: biochemical; settings: in presence of CP55,940, mean ± SEM
Mouse CB1, sequence (P47746 whole entry): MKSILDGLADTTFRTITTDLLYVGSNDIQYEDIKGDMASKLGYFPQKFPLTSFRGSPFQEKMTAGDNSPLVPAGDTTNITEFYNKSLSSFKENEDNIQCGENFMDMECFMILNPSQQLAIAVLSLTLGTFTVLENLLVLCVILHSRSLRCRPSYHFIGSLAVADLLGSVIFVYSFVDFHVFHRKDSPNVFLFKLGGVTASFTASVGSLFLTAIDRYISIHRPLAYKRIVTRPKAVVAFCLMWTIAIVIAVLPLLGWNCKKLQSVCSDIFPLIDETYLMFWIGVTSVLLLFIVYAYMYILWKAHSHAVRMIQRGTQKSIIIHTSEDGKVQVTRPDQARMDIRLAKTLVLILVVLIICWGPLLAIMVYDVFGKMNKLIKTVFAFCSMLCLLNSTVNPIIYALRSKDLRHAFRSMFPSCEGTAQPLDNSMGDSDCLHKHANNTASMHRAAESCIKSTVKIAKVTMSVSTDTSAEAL
Description: [^35S]GTPγS Binding Assay: For receptor signaling, membranes (10 μg protein) from either ICR mouse cerebellum mice (6-8 weeks old; Enviga International, Indianapolis, Indiana, United States of America) or HEK cells stably expressing CB1 receptor were preincubated in assay buffer for 10 min with 3 units/ml adenosine deaminase then incubated for 60 min at 30° C. with 30 μM GDP and 0.1 nM [^35S]GTPγS (Perkin Elmer Life Sciences, Boston, Massachusetts, United States of America). Non-specific binding was determined by adding 30 μM unlabeled GTPγS.
as §1

[4] = Metabolic stability in rat liver microsomes; type: in vitro ADME; settings: for microsomal CLint / half-life: pH 7.4, 0.5 mg/mL protein; for microsomal CLint: read-out: Rat Liver microsome Clearance; for half-life: read-out: Rat Liver microsome T1/2
Description: Metabolic stability assessment: Compounds were incubated with rat liver microsomes at 37° C. for a total of 45 minutes. The reaction was performed at pH 7.4 in 100 mM potassium phosphate buffer containing 0.5 mg/mL of rat liver microsomal protein. Phase I metabolism was assessed by adding NADPH to a final concentration of 1 mM and collecting samples at time points 0, 5, 15, 30 and 45 minutes. All collected samples were quenched 1:1 with ice-cold stop solution (1 μM labetalol and 1 μM glyburide in acetonitrile) and centrifuged to remove precipitated protein. Resulting supernatants were further diluted 1:4 with acetonitrile:water (1:1). Samples were analyzed by LC/MS/MS and calculations for half-life, and in-vitro clearance were accomplished using Microsoft Excel (2007).

[5] = test system: rats; settings: cited from earlier work
[6] = Kinetic solubility assessment; type: physicochemical; settings: phosphate buffer solution, 2 hours at room temperature, target 400 μM
Description: The solution was agitated on a VX-2500 multi-tube vortexer (VWR International, Radnor, Pennsylvania, United States of America) for 2 hours at room temperature. Following agitation, the sample was filtrated on a glass-fiber filter (1 μm) and the eluate was diluted 400-fold with a mixture of acetonitrile: water (1:1). On each experimental occasion, nicardipine and imipramine were assessed as reference compounds for low and high solubility, respectively. All samples were assessed in triplicate and analyzed by LC-MS/MS using electrospray ionization against standards prepared in the same matrix.

[7] = test system: rats; assay: Locomotion in rats; type: in vivo, rat; settings: 5.6 mg/kg i.p.
[8] = Plasma protein binding; type: in vitro ADME
[9] = test system: MDCK-mdr1 cells; assay: Bidirectional MDCK-MDR1 permeability assay; type: in vitro ADME
Description: Permeability Assessment. Bidirectional MDCK-MDR1 permeability assay was performed by Paraza Pharma Inc. (Montreal, Canada). MDCK-mdr1 cells at passage 5 were seeded onto permeable polycarbonate supports in 12-well Costar Transwell plates and allowed to grow and differentiate for 3 days. On day 3, culture medium (DMEM supplemented with 10% FBS) was removed from both sides of the transwell inserts and cells were rinsed with warm HBSS. After the rinse step, the chambers were filled with warm transport buffer (HBSS containing 10 mM HEPES, 0.25% BSA, pH 7.4) and the plates were incubated at 37° C. for 30 min prior to TEER (Trans Epithelial Electric Resistance) measurements.
The buffer in the donor chamber (apical side for A-to-B assay, basolateral side for B-to-A assay) was removed and replaced with the working solution (10 μM test article in transport buffer). The plates were then placed at 37° C. under light agitation. At designated time points (30, 60 and 90 min), an aliquot of transport buffer from the receiver chamber was removed and replenished with fresh transport buffer. Samples were quenched with ice-cold ACN containing internal standard and then centrifuged to pellet protein. Resulting supernatants are further diluted with 50/50 ACN/H2O (H2O only for Atenolol) and submitted for LC-MS/MS analysis. Reported apparent permeability (Papp) values were calculated from single determination. Atenolol and propranolol were tested as low and moderate permeability references.
The apparent permeability (Papp, measured in cm/s) of a compound is determined according to the following formula from two independent experiments in duplicate: […]
where dQ/dt is the net rate of appearance in the receiver compartment; A is the area of the Transwell measured in cm^2 (1.12 cm^2); Ci is the initial concentration of compound added to the donor chamber; and 60 is the conversion factor for minute to second.

[10] = in vivo; cited from earlier work
[11] = test system: rats; settings: 10 mg/kg; cited from earlier work

T1 sequence (P21554 whole entry): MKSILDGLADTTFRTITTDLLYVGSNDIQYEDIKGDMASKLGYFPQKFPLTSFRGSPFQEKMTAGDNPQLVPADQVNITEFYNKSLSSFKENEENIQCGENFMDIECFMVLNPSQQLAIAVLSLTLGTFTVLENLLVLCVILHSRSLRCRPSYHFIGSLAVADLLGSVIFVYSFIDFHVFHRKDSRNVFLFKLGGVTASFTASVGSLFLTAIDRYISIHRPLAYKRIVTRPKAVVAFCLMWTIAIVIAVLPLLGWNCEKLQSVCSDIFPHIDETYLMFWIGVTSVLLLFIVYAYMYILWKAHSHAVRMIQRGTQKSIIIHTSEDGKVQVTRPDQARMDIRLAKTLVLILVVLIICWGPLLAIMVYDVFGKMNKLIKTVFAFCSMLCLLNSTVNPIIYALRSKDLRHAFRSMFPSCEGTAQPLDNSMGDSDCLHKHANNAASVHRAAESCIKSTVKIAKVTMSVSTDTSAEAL

In the case of `CC(=O)c1ccc(CCNc2c(Nc3ccc(Cl)cc3)c(=O)c2=O)cc1` [Compound 40, 3-{[2-(A-acetylphenyl)ethyl]amino}-4-[(4-chlorophenyl)amino]cyclobut-3-ene-1,2-dione], the IC50 [1] is reported as 350 ± 10 nM, the “Human CB1 HEK293 membrane [35S]GTPγS binding assay pIC50 ± SEM” value [2] is reported as 6.77 ± 0.04 and the “Mouse CB1 [35S]GTPγS binding assay pIC50 ± SEM” value [3] is reported as 6.70 ± 0.09.

For `O=C(Nc1ccc(Cl)cc1)Nc1cccc(-c2cccc(N3CCCC3)n2)c1` [PSNCBAM-1, reference compound], the “Rat Liver microsome T1/2” value ([4]; 0.5 mg/mL protein, NADPH, 37° C.) is given as 13 min and the “Food intake and body weight in rats” value [5] is given as “reduces food intake and body weight”.

With `O=c1c(NCCc2cccc(Cl)c2)c(Nc2ccc(Cl)cc2)c1=O` [Compound 7, 3-[(4-Chlorophenyl)amino]-4-{[2-(3-chlorophenyl)ethyl]amino}cyclobut-3-ene-1,2-dione] the microsomal CLint ([4]; NADPH, 37° C.) was 34.7 µL/min/mg, the half-life ([4]; NADPH, 37° C.) was 40 min and the “Metabolic stability in rat liver microsomes compared with PSNCBAM-1” value ([4]; versus PSNCBAM-1) was “better metabolic stability”. For the same compound, the solubility kinetic at 2 h [6] was under 1 µM, the IC50 [1] was 130 ± 12 nM and the Effect on locomotion [7] was “without affecting locomotion”. For the same compound, the Effect on locomotion ([7]; listed as Compound 6) was “did not affect locomotion”, the “% Plasma Protein Bound” value [8] was over 99.74% and the “Efflux ratio BA/AB” value ([9]; MDCK-MDR1) was 2.1. The “Papp A to B (x10^-6 cm/s)” value ([9]; MDCK-MDR1, 10 μM, apical to basolateral) was 3.1 x10^-6 cm/s and the “Papp B to A (x10^-6 cm/s)” value ([9]; MDCK-MDR1, 10 μM, basolateral to apical) was 6.4 x10^-6 cm/s.

In the case of `O=c1c(NCCc2ccc(F)cc2F)c(Nc2ccc(Cl)cc2)c1=O` [Compound 47, 3-[(4-Chlorophenyl)amino]-4-{[2-(2,4-difluorophenyl)ethyl]amino}cyclobut-3-ene-1,2-dione], the IC50 [1] is reported as 362 ± 30 nM, the “Human CB1 HEK293 membrane [35S]GTPγS binding assay pIC50 ± SEM” value [2] is reported as 6.84 ± 0.08 and the “Mouse CB1 [35S]GTPγS binding assay pIC50 ± SEM” value [3] is reported as 6.61 ± 0.19.

With `O=c1c(Nc2ccc(Cl)cc2)c(Nc2cccc(-c3ccc(F)cc3)c2)c1=O` [Compound 33, 3-[(4-Chlorophenyl)amino]-4-[(4′-fluorobiphenyl-3-yl)amino]cyclobut-3-ene-1,2-dione] the microsomal CLint ([4]; NADPH, 37° C.) was 59.6 µL/min/mg, the half-life ([4]; NADPH, 37° C.) was 23.7 min and the solubility kinetic at 2 h ([6]; aqueous buffer, kinetic from dmso stock) was under 1 µM. The IC50 [1] was 575 ± 100 nM, the IC50 ([2]; read-out: Human CB1 HEK293 membrane [35S]GTPγS binding assay pIC50 ± SEM (converted)) was 501 nM and the “% Plasma Protein Bound” value [8] was 99%. For the same compound, the IC50 ([3]; read-out: Mouse CB1 [35S]GTPγS binding assay pIC50 ± SEM (converted)) was 110 nM.

For `N#Cc1ccc(NC(=O)Nc2cccc(-c3cccc(N4CCCC4)n3)c2)cc1` [RTICBM-28], the “THC's potency in drug discrimination” value [10] is listed as “reduces THC's potency in drug discrimination”.

In the case of `O=C(NCCc1cccc(Cl)c1)Nc1ccc(Cl)cc1` [RTICBM-189], the “Drug-induced reinstatement of cocaine seeking in rats” value [11] is given as “attenuates drug-induced restatement of cocaine seeking”.
